In US9676820B2, “Method for inhibiting proliferation of high LIX1L-expressing tumor cell, and tumor cell proliferation-inhibiting peptide” (National University Corporation Hamamatsu University School …, priority 2013, dated 2017):
Entries after “also recorded” stand apart in the source; their conditions may differ.

How the values were obtained:
HL-60 strain = test: MTT assay, HL-60 strain; type: cell-based
Procedure: (§1) Specifically, first, cells plated in a 96-well microplate such that the density thereof became 5×10^3 cells/well were cultured for one night in a culture solution having the same composition as those in the reference examples. Thereafter, the culture solution was exchanged with 100 μL of a culture solution of which the concentration of peptides is 0 μM to 100 μM for culturing for 72 hours. After the culturing, an MTT-containing PBS solution was added to the culture solution, and the mixture was incubated for 4 hours. Then, formazan which was generated by putting 100 μL of isopropanol (containing 34 (v/v) % of hydrochloric acid) into each of the wells was dissolved. The absorbance of each of the wells of the microplate at 570 nm was measured using a microplate reader. As controls, culturing was performed in the same manner except that no peptide was added to the strains, an MTT assay was performed thereon, and the absorbance at 570 nm was measured (untreated).
(§2) In the method for measuring the viable cell counts, cells were cultured for 3 days similarly to Example 1 except that a 25 μM (10 μM for an HL-60 strain, a K562 strain, and a U937 strain) culture solution containing a control peptide or a peptide 1 was used, and the viable cell counts were measured. As a comparison, culturing was performed similarly to the above using a culture solution containing no peptide, and the viable cell counts were measured (untreated).
(§3) In addition, in the method for performing an MTT assay, cells were cultured for 72 hours similarly to Example 2 except that a peptide to be added to a strain was set to a control peptide or a peptide 1 at 25 μM (10 μM for an HL-60 strain, a K562 strain, and a U937 strain), an MTT assay was performed thereon, and the absorbance at 570 nm was measured. As a comparison, culturing was performed similarly to the above using a culture solution containing no peptide, and the MTT assay was performed thereon (untreated).

RPMI8226 strain = test: MTT assay, RPMI8226 strain; type: cell-based; details: peptide 0 μM to 100 μM, 72 hours
Procedure: as §1
(§4) Specifically, the cells were cultured for 72 hours similarly to Example 2 except that a peptide to be added to a cell strain was set to peptide 1, 3, or 4, or a control peptide, an MTT assay was performed thereon, and the absorbance at 570 nm was measured.

U937 strain = test: MTT assay, U937 strain; type: cell-based
Procedure: as §1, §4, §2, §3

293 FLG = test: MTT assay, 293 FLG cells; type: cell-based
Procedure: as §1, with “Thereafter, the culture solution was exchanged with 100 μL of a culture solution of which the concentration of peptides is 0 μM to 100 μM for culturing for 72 hours.” left out
as §2, §3
(§5) Specifically, the cells were cultured for 72 hours similarly to Example 2 except that a peptide to be added to a cell was set to a peptide 1, 2, 5, or 6, MTT assays were performed thereon, and the absorbance at 570 nm was measured. As a comparison, culturing was performed similarly to the above using a culture solution containing no peptide, and the MTT assay was performed thereon (untreated).
(§6) Specifically, the cells were cultured for 72 hours similarly to Example 2 except that peptides to be added to cell strains were set to peptides 7 to 14, MTT assays were performed thereon, and the absorbance at 570 nm was measured. […]
(§7) Specifically, the cells were cultured for 72 hours similarly to Example 2 except that a peptide to be added to a cell strain was set to a peptide 15 or 16, an MTT assay was performed thereon, and the absorbance at 570 nm was measured. […]

293 FLG/LIX1L = test: MTT assay, 293 FLG/LIX1L cells; type: cell-based
Procedure: as §1, with “Thereafter, the culture solution was exchanged with 100 μL of a culture solution of which the concentration of peptides is 0 μM to 100 μM for culturing for 72 hours.” left out
as §2, §3, §5, §6, §7

MKN45 cell strains = test: Cancer mouse model transplanted with MKN45 cell strain; type: in vivo; details: nude mice with MKN45 transplant
Procedure: Rearing of 10 nude male mice (BALB/cAJcl-nu/nu, purchased from CLEA Japan, Inc.) at the age of 7 weeks was started, and MKN45 cell strains separately cultured were transplanted into the mice by being subcutaneously injected thereinto on day 31. The day on which the transplantation was performed was set as day 0, the mice were divided into two groups (peptide 1-administered group and control peptide-administered group) of 5 mice on day 14 of the transplantation, 4 mice were selected among the 5 mice from each group, and the peptide 1 or the control peptide was administered. The remaining one mouse was set as a spare. In the peptide 1-administered group, 100 μL of a 30 μM peptide 1 solution (solution prepared by adding a methylcellulose solution to the solution after the peptide 1 was dissolved in PBS (−)) was subcutaneously injected into a tumor site (site into which the MKN45 cell strain was injected) 4 times every 3 days. In the control peptide-administered group, 100 μL of a 30 μM control peptide solution (solution prepared by adding a methylcellulose solution to the solution after the control peptide was dissolved in PBS (−)) was subcutaneously injected into a tumor site 4 times on the same days as those in the peptide 1-administered group.
The results in which the points of time (days) at which a peptide solution was administered to each mouse and the volume (mm^3) of a tumor site were temporally measured are shown in FIG. 21. For the volume of the tumor site, the width and the length of the tumor site determined from the appearance of the mouse were measured and calculated using the following formula. [Volume(mm^3) of Tumor Site]=([Width(mm) of Tumor Site]^2×[Length(mm) of Tumor Site])/2
The “width of tumor site” referred herein means a maximum width of a portion in which the skin has risen due to the tumor and the “length of tumor site” means a maximum length of a portion in which the skin has risen due to the tumor.

[1] = peptide 10 μM, 3 days / 72 hours
[2] = 72 hours, peptide concentrations up to 250 μM
[3] = peptide 25 μM, 3 days / 72 hours

`CC(C)[C@H](NC(=O)[C@H](Cc1ccc(O)cc1)NC(=O)[C@H](CS)NC(=O)[C@@H](NC(=O)[C@H](Cc1ccc(O)cc1)NC(=O)[C@@H]1CCCN1C(=O)[C@@H]1CCCN1C(=O)[C@H](CO)NC(=O)[C@H](CC(N)=O)NC(=O)[C@H](CO)NC(=O)[C@@H]1CCCN1C(=O)CCCCCNC(=O)[C@H](CCCNC(=N)N)NC(=O)[C@H](CCCNC(=N)N)NC(=O)[C@H](CCCNC(=N)N)NC(=O)[C@H](CCC(N)=O)NC(=O)[C@H](CCCNC(=N)N)NC(=O)[C@H](CCCNC(=N)N)NC(=O)[C@H](CCCCN)NC(=O)[C@H](CCCCN)NC(=O)[C@H](CCCNC(=N)N)NC(=O)CNC(=O)[C@@H](N)Cc1ccc(O)cc1)C(C)C)C(N)=O` [peptide 1, YGRKKRRQRRR-X-PSNSPPYVCYV-NH2] was tested, and the “concentration at which a dominant effect of inhibiting the cell proliferation was recognized” value (HL-60 strain; MTT assay, 72 hours) was “greater than or equal to 6.25 μM”, the “cell proliferation (viable cell counts and MTT assay)” value (HL-60 strain; [1]) was “inhibited” and the “absorbance at 570 nm (MTT assay), influence on cell proliferation” value (RPMI8226 strain) was “no effect of inhibiting the cell proliferation; also recorded: not inhibited”. The “absorbance at 570 nm (MTT assay), cell proliferation” value (U937 strain; peptide 0 μM to 100 μM, 72 hours) was “inhibited”, the “cell proliferation (viable cell counts and MTT assay)” value (U937 strain; [1]) was “inhibited” and the “cell proliferation (MTT assay, absorbance at 570 nm)” value (293 FLG; [2]) was “inhibited”. The “cell proliferation (viable cell counts and MTT assay)” value (293 FLG; [3]) was “not inhibited”, the “cell proliferation (MTT assay, absorbance at 570 nm)” value (293 FLG/LIX1L; [2]) was “inhibited” and the “cell proliferation (viable cell counts and MTT assay)” value (293 FLG/LIX1L; [3]) was “inhibited”. The body weight (MKN45 cell strains; 100 μL of 30 μM peptide solution 4 times, vs spare mice given nothing) was “no particularly significant change” and the “volume (size) of the tumor site” value (MKN45 cell strains; 100 μL of 30 μM peptide solution subcutaneously into tumor site 4 times every 3 days from day 14) was “rarely changed”.
